Assay: mn = molality of the nth substance listed, in mol/kg
Settings: Liquid

[Cl-].[Na+] [sodium chloride] + O
Settings | mass density [kg/m3]
332.77 K, 16012 kPa, m1 = 1 | 1028.34
332.83 K, 10001 kPa, m1 = 1 | 1025.96
332.88 K, 12003 kPa, m1 = 1 | 1026.78
332.96 K, 18010 kPa, m1 = 1 | 1029.12
333.11 K, 14007 kPa, m1 = 1 | 1027.52
333.13 K, 10014 kPa, m1 = 2 | 1060.45
333.13 K, 12007 kPa, m1 = 3 | 1090.92
333.13 K, 14002 kPa, m1 = 3 | 1091.64
333.16 K, 18002 kPa, m1 = 3 | 1093.07
333.17 K, 15999 kPa, m1 = 2 | 1062.63
333.18 K, 18011 kPa, m1 = 2 | 1063.39
333.19 K, 10002 kPa, m1 = 3 | 1089.97
333.19 K, 12008 kPa, m1 = 2 | 1061.17
333.2 K, 14003 kPa, m1 = 2 | 1061.9
333.21 K, 16006 kPa, m1 = 3 | 1092.36
333.52 K, 15999 kPa, m1 = 4 | 1123.12
333.54 K, 12004 kPa, m1 = 4 | 1121.22
333.55 K, 18008 kPa, m1 = 4 | 1124.3
333.56 K, 14008 kPa, m1 = 4 | 1122.36
333.59 K, 10007 kPa, m1 = 4 | 1120.38
352.11 K, 10000 kPa, m1 = 4 | 1109.5
352.14 K, 18001 kPa, m1 = 4 | 1112.67
352.16 K, 12008 kPa, m1 = 4 | 1109.8
352.17 K, 14050 kPa, m1 = 4 | 1111.1
352.19 K, 16005 kPa, m1 = 4 | 1111.53
352.65 K, 12002 kPa, m1 = 1 | 1015.47
353.13 K, 18026 kPa, m1 = 2 | 1052.55
353.14 K, 12005 kPa, m1 = 2 | 1050.19
353.16 K, 14002 kPa, m1 = 3 | 1079.82
353.16 K, 14003 kPa, m1 = 2 | 1050.95
353.19 K, 16007 kPa, m1 = 2 | 1051.71
353.2 K, 9995 kPa, m1 = 1 | 1014.63
353.2 K, 13999 kPa, m1 = 1 | 1016.06
353.23 K, 9996 kPa, m1 = 2 | 1049.38
353.23 K, 10007 kPa, m1 = 3 | 1078.28
353.23 K, 16008 kPa, m1 = 3 | 1080.53
353.27 K, 12003 kPa, m1 = 3 | 1079.02
353.28 K, 17998 kPa, m1 = 1 | 1017.65
353.28 K, 18002 kPa, m1 = 3 | 1081.24
372.7 K, 18017 kPa, m1 = 4 | 1100.7
372.71 K, 14005 kPa, m1 = 4 | 1099
372.72 K, 10019 kPa, m1 = 4 | 1097.2
372.75 K, 16043 kPa, m1 = 4 | 1100.12
372.76 K, 12007 kPa, m1 = 4 | 1098.5
372.96 K, 16007 kPa, m1 = 1 | 1003.93
373 K, 18001 kPa, m1 = 1 | 1004.74
373.03 K, 12005 kPa, m1 = 1 | 1002.25
373.03 K, 14001 kPa, m1 = 1 | 1003.21
373.1 K, 11999 kPa, m1 = 2 | 1038.08
373.11 K, 10005 kPa, m1 = 3 | 1066.26
373.11 K, 17997 kPa, m1 = 3 | 1069.36
373.16 K, 10001 kPa, m1 = 1 | 1001.31
373.16 K, 14004 kPa, m1 = 3 | 1067.77
373.17 K, 12008 kPa, m1 = 3 | 1067.01
373.2 K, 14002 kPa, m1 = 2 | 1038.84
373.22 K, 16005 kPa, m1 = 3 | 1068.52
392.6 K, 10002 kPa, m1 = 1 | 986.9
392.65 K, 12008 kPa, m1 = 1 | 987.5
392.65 K, 14005 kPa, m1 = 1 | 988.82
392.65 K, 16001 kPa, m1 = 1 | 989.54
392.65 K, 18001 kPa, m1 = 1 | 990.45
392.77 K, 14002 kPa, m1 = 4 | 1088.52
392.78 K, 15999 kPa, m1 = 4 | 1089.3
392.79 K, 10006 kPa, m1 = 4 | 1086.96
392.81 K, 12002 kPa, m1 = 4 | 1087.71
392.82 K, 18008 kPa, m1 = 4 | 1090.43
393.09 K, 14006 kPa, m1 = 3 | 1054.75
393.17 K, 10001 kPa, m1 = 3 | 1053.22
393.17 K, 16002 kPa, m1 = 3 | 1055.54
393.17 K, 18005 kPa, m1 = 2 | 1027.22
393.18 K, 10003 kPa, m1 = 2 | 1023.83
393.2 K, 11995 kPa, m1 = 2 | 1024.64
393.22 K, 13999 kPa, m1 = 2 | 1025.54
393.23 K, 16003 kPa, m1 = 2 | 1026.34
393.24 K, 12008 kPa, m1 = 3 | 1053.85
393.26 K, 17997 kPa, m1 = 3 | 1056.25
412.86 K, 10007 kPa, m1 = 4 | 1072.35
412.92 K, 12005 kPa, m1 = 4 | 1073.15
412.94 K, 14004 kPa, m1 = 4 | 1073.97
413.01 K, 16003 kPa, m1 = 4 | 1074.76
413.06 K, 18002 kPa, m1 = 4 | 1075.53
413.11 K, 17998 kPa, m1 = 2 | 1012.96
413.12 K, 14007 kPa, m1 = 2 | 1011.33
413.12 K, 16004 kPa, m1 = 1 | 973.21
413.14 K, 10008 kPa, m1 = 2 | 1009.53
413.14 K, 16003 kPa, m1 = 2 | 1012.21
413.14 K, 18004 kPa, m1 = 3 | 1041.53
413.15 K, 18001 kPa, m1 = 1 | 974.15
413.16 K, 10006 kPa, m1 = 1 | 970.45
413.17 K, 12009 kPa, m1 = 1 | 971.23
413.17 K, 16001 kPa, m1 = 3 | 1040.63
413.18 K, 12003 kPa, m1 = 2 | 1010.61
413.18 K, 13998 kPa, m1 = 1 | 972.24
413.2 K, 12005 kPa, m1 = 3 | 1038.72
413.23 K, 10007 kPa, m1 = 3 | 1038.23
